Legend:
[1] = cited from earlier work
[2] = test system: BDNF (brain-derived neurotrophic factor) transport rate; details: PD patients
Experimental: Statistical significance was assessed by 1-way ANOVA with Tukey post-hoc testing. A P value less than 0.05 was considered statistically significant (* P<0.05). […] Solid lines indicate regression; dashed lines indicate 95% confidence intervals. The statistical test that generated both the r^2 and P values was a linear regression (mean±SD were generated by technical replicates of repeated sample preparations and analyses).
The study group consisted of symptomatic PD patients, all on standard anti-PD medications, and 6 non-PD volunteers. […] Unified PD Rating Scale, PART III, and Hoehn and Yahr scores were obtained for each subject. […] Compliance to the experimental protocol was monitored by the clinical staff through collection of blood plasma samples for body water enrichment. […]
Purified cargo proteins were hydrolyzed by treatment with 6N HCl for 16 hours at 110° C. Protein derived amino acids were derivatized to pentafluorobenzyl derivatives, and ^2H incorporation in alanine released from total vesicular proteins was measured by GC/MS, as described elsewhere (Busch R, et al., Biochim Biophys Acta., 1760(5):730-44 (2006)). ^2H enrichment was calculated as the percent increase over the natural abundance of alanine derivative present as the (M+1) mass isotopomer (EM1) (Busch R, et al., Biochim Biophys Acta., 1760(5):730-44 (2006)). […]

ALS = details: approved by the FDA in 1995; cited from earlier work
[3] = Tolerability of high body water enrichments of 2H2O; assay type: in vivo, human; details: 1-10% of total body water labeled, maintained for weeks or months; humans (>100 persons) and experimental animals
From the text: Relatively high body water enrichments of ^2H2O (e.g., 1-10% of the total body water is labeled) may be achieved relatively inexpensively using the techniques of the invention. […] This finding in a large number of human subjects (>100 persons) is contrary to previous concerns about vestibular toxicities at high doses of ^2H2O. One of the Applicants has discovered that as long as rapid changes in body water enrichment are prevented (e.g., by initial administration in small, divided doses), high body water enrichments of ^2H2O can be maintained with no toxicities. For example, the low expense of commercially available ^2H2O allows long-term maintenance of enrichments in the 1-5% range at relatively low expense (e.g., calculations reveal a lower cost for 2 months labeling at 2% ^2H2O enrichment, and thus 7-8% enrichment in the alanine precursor pool, than for 12 hours labeling of ^2H-leucine at 10% free leucine enrichment, and thus 7-8% enrichment in leucine precursor pool for that period).

For `COc1ccc2c(c1OC)C(=O)O[C@@H]2[C@H]1c2c(cc3c(c2OC)OCO3)CCN1C` [Noscapine], the “half-life in CNS tissue” value ([1]; CNS tissue (brain and spinal cord) and PNS) is listed as “long half-life” and the “blood brain barrier penetration” value ([1]; in vivo) is listed as “penetrates the blood brain barrier”.
For `C#CCN[C@@H]1CCc2ccccc21` [rasagiline], the “deficits in transport rates of BDNF in CSF, compared to patients not treated with Azilect” value ([2]; rasagiline 1 mg/day, 1-way ANOVA with Tukey post-hoc, * P<0.05, FIG. 7 panel A) was “reduced deficits in transport rates of BDNF” and the “correlation between reduced delays in rates of BDNF transport and duration of treatment” value ([2]; duration of treatment in years prior to LP, linear regression, FIG. 7 panel B) was “strong correlation”.
In the case of `Nc1nc2ccc(OC(F)(F)F)cc2s1` [Riluzole], the disease progression (ALS) is given as “only delays disease progression modestly”.
For `[2H]O[2H]` [^2H2O], the “toxicity at high body water enrichment” value [3] was “without any evidence of toxicity”.

Source: patent publication US20160169914A1, “KINETICS BIOMARKERS FOR NEURODEGENERATION” (KineMed, Inc., priority 2014, published 2016)
